Assays:
[1] = system: membrane receptors of human breast cancer cells; assay: Receptor binding, human breast cancer cell membranes (125I-[D-Trp6]LHRH as labelled ligand); settings: 125I-[D-Trp]6 LHRH labelled ligand; for Affinity Constant Ka 1: NB = no binding
Protocol: Affinity of peptides to rat pituitary and human breast cancer cell membranes is determined by using labelled LHRH and [D-Trp^6 ]LHRH. The assay is carried out similarly to that described by T. Kadar et al., Proc. Natl. Acad. Sci. USA, 85, 890-894 (1988) and M. Fekete et al., Endocrinology, 124, 946-955 (1989).

[2] = system: perfused rat pituitary cell system (LH response to LH-RH); assay: LH-RH inhibiting activity in superfused rat pituitary cell system; type: cell-based
Protocol: Immediately after that, a mixture containing the same concentration of peptide and 3 nM LHRH is administered for 3 min. This was followed by four consecutive infusions of 3 nM LHRH for 3 min (1 ml perfusate) at 30 min intervals (30, 60, 90, 120 min). LH content of the 1 ml fractions collected is determined by radioimmunoassay (RIA).

LH and FSH levels = assay: In vivo effect on LH and FSH levels in castrated male rats; design: species or system rat; settings: s.c.
Protocol: (d) In vivo effect on LH and FSH levels was measured as described by L. Bokser et al. (Proc. Natl. Acad. Sci. US, accepted for publication.) Castrated male rats weighing 350-410 grams anaesthetized with urethane were injected subcutaneously with Peptide 7 and 8 in doses of 1.25 μg and 5.0 μg. Blood samples were taken from the jugular vein before injection and 1, 2, 3, 4, 6, 24 and 48 hours after the administration of peptides. Control animals were injected only with saline. LH and FSH levels were determined by specific RIAs.

[3] = system: ovulation in 4-day-cycling rats; assay: In vivo antiovulatory activity in 4-day-cycling rats; design: species or system rat
Protocol: (b) In vivo antiovulatory activity of peptides is determined in 4-day-cycling rats as described [A. Corbin and C. W. Beattie, Endocr. Res. Commun., 2, 1-23 (1975)].

[4] = antagonist to LH-RH ratio 1:1, 0 min
[5] = antagonist to LH-RH ratio 1:1, 30 min
[6] = antagonist to LH-RH ratio 1:1, 60 min
[7] = antagonist to LH-RH ratio 1:1, 90 min
[8] = antagonist to LH-RH ratio 3:1, 0 min
[9] = antagonist to LH-RH ratio 3:1, 30 min
[10] = antagonist to LH-RH ratio 3:1, 60 min
[11] = antagonist to LH-RH ratio 3:1, 90 min

Ac-D-Nal(2)-D-Phe(4Cl)-D-Pal(3)-Ser-Arg-D-Lys[A2 pr(Ac)2 ]-Leu-Arg-Pro-D-Ala-NH2 [Peptide 2]
Affinity Constant Ka 2 [1]: 0.32 µM⁻¹
Affinity Constant Ka 1 [1]: 16.35 nM⁻¹
% inhibition of LH response [2, 4]: 26%
% inhibition of LH response [2, 5]: 27%
% inhibition of LH response [2, 6]: 29%
% inhibition of LH response [2, 7]: 25%
% inhibition of LH response [2, 8]: 88%
% inhibition of LH response [2, 9]: 41%
% inhibition of LH response [2, 10]: 13%

Ac-D-Nal(2)-D-Phe(4Cl)-D-Pal(3)-Ser-Arg-D-Lys[A2 pr(Car)2 ]-Leu-Arg-Pro-D-Ala-NH2 [Peptide 1]
Affinity Constant Ka 2 [1]: 3.15 µM⁻¹
Affinity Constant Ka 1 [1]: 7.07 nM⁻¹
% inhibition of LH response [2, 4]: 80%
% inhibition of LH response [2, 5]: 46%
% inhibition of LH response [2, 6]: 31%
% inhibition of LH response [2, 8]: 95%
% inhibition of LH response [2, 9]: 59%
% inhibition of LH response [2, 10]: 55%
% inhibition of LH response [2, 11]: 52%

Ac-D-Nal(2)-D-Phe(4Cl)-D-Pal(3)-Ser-Arg-D-Lys[A2 pr(EtCar)2 ]-Leu-Arg-Pro-D-Ala-NH2 [Peptide 4]
Affinity Constant Ka 2 [1]: 0.05 µM⁻¹
Affinity Constant Ka 1 [1]: 9.71 nM⁻¹
% inhibition of LH response [2, 8]: 91%
% inhibition of LH response [2, 9]: 50%
% inhibition of LH response [2, 10]: 42%
% inhibition of LH response [2, 11]: 41%

Ac-D-Nal(2)-D-Phe(4Cl)-D-Pal(3)-Ser-Arg-D-Lys[A2 pr(For)2 ]-Leu-Arg-Pro-D-Ala-NH2 [Peptide 3]
% inhibition of LH response [2, 8]: 93%
% inhibition of LH response [2, 9]: 43%
% inhibition of LH response [2, 10]: 26%
% inhibition of LH response [2, 11]: 24%

Ac-D-Nal(2)-D-Phe(4Cl)-D-Pal(3)-Ser-Tyr-D-Lys[A2 pr(CHC)2 ]-Leu-Arg-Pro-D-Ala-NH2 [Peptide 12]
Affinity Constant Ka 2 [1]: 3.57 µM⁻¹
Affinity Constant Ka 1 [1]: 1.68 nM⁻¹

Ac-D-Nal(2)-D-Phe(4Cl)-D-Pal(3)-Ser-Tyr-D-Lys[A2 pr(Car)2 ]-Leu-Arg-Pro-D-Ala-NH2 [Peptide 7]
inhibition of LH levels forty-eight hours after injection (LH and FSH levels; dose of 5 μg, 48 hours, p<0.05): significant inhibition
duration of significant decrease in the LH levels (LH and FSH levels; p<0.01): more than 24 hours
Affinity Constant Ka 2 [1]: 5.72 µM⁻¹
Affinity Constant Ka 1 [1]: 6.27 nM⁻¹
% inhibition of LH response [2, 4]: 57%
% inhibition of LH response [2, 5]: 51%
% inhibition of LH response [2, 6]: 45%
% inhibition of LH response [2, 7]: 41%
% inhibition of LH response [2, 8]: 96%
% inhibition of LH response [2, 9]: 78%
% inhibition of LH response [2, 10]: 70%
% inhibition of LH response [2, 11]: 58%

Ac-D-Nal(2)-D-Phe(4Cl)-D-Pal(3)-Ser-Tyr-D-Lys[A2 pr(EtCar)2 ]-Leu-Arg-Pro-D-Ala-NH2 [Peptide 9]
Affinity Constant Ka 2 [1]: 8.57 µM⁻¹
Affinity Constant Ka 1 [1]: 30.92 nM⁻¹
% inhibition of LH response [2, 8]: 90%
% inhibition of LH response [2, 9]: 72%
% Blockade of Ovulation ([3]; dose 0.75 μg): 20%
% Blockade of Ovulation ([3]; dose 1.5 μg): 50%

Ac-D-Nal(2)-D-Phe(4Cl)-D-Pal(3)-Ser-Tyr-D-Lys[A2 pr(For)2 ]-Leu-Arg-Pro-D-Ala-NH2 [Peptide 10]
Affinity Constant Ka 2 [1]: 2.11 µM⁻¹
Affinity Constant Ka 1 [1]: 48.29 nM⁻¹
% Blockade of Ovulation ([3]; dose 0.75 μg): 67%
% Blockade of Ovulation ([3]; dose 1.5 μg): 100%

Ac-D-Nal(2)-D-Phe(4Cl)-D-Pal(3)-Ser-Tyr-D-Lys[A2 pr]-Leu-Arg-Pro-D-Ala-NH2 [Peptide 25]
Affinity Constant Ka 2 [1]: 1.29 µM⁻¹
Affinity Constant Ka 1 [1]: 3.49 nM⁻¹
% inhibition of LH response [2, 4]: 57%
% inhibition of LH response [2, 5]: 49%
% inhibition of LH response [2, 6]: 43%
% inhibition of LH response [2, 8]: 85%
% inhibition of LH response [2, 9]: 69%
% inhibition of LH response [2, 10]: 62%
% inhibition of LH response [2, 11]: 57%
